Measurements reported in patent publication US7560117B2, “Foamy virus mutant reverse transcriptase” (priority 2001, dated 2009).

Columns and labels:
HIV-1 RT = HIV-1 RT (Human immunodeficiency virus type 1 group M subtype B, UniProt P03366); assay: 3TCTP inhibition assay, M13 template, radiolabeled dCTP incorporation; conditions: 1.0 μM 3TCTP; activity without drug set at 100%
Method: The 3TCTP inhibition assays were performed using the M13 template and the −47 primer. The −47 sequencing primer was annealed to the single stranded M13mp18 DNA by heating to 95° C. and slowly cooling to room temperature. The template-primer was extended by adding 1.0 μg of RT in 25 mM Tris(pH 8.0), 75 mM KCl, 8.0 mM MgCl2, 100 μg/ml BSA, 10 mM CHAPS, 10 μM each of dATP, dGTP, and dTTP, 2.0 μM [α-^32P]dCTP, and the indicated concentrations of 3TCTP (Moravek Biochemicals, Brea, Calif.) in a 100 μl reaction volume. The mixture was incubated at 37° C. for 30 min, then halted by the addition of 3 ml of ice-cold trichloroacetic acid (TCA) and the precipitated DNA was collected by suction filtration through Whatman GF/C glass filters. The amount of incorporated radioactivity was determined by liquid scintillation counting.
Samples were TCA precipitated, bound to glass filters, and incorporation of radiolabeled dCTP was measured. […] These levels of RT activity in the absence of drug were set at 100% activity for each recombinant RT.

PFV [1] = conditions: previous studies; cited from earlier work
PFV [2] = conditions: virus producing cells treated with inhibitor
PFV [3] = format: cell-based, Prototype Foamy Virus (SFVcpz(hu))

| Compound | specific inhibition of production of infectious PFV particles (PFV [1]) | further results |
| --- | --- | --- |
| Nc1ccn([C@@H]2CS[C@H](COP(=O)(O)OP(=O)(O)OP(=O)(O)O)O2)c(=O)n1 [3TCTP] |  | activity retained by HIV-1 RT (HIV-1 RT): 37% |
| Nc1ccn([C@@H]2CS[C@H](CO)O2)c(=O)n1 [3TC] | not |  |
| Cc1cn([C@H]2C[C@H](N=[N+]=[N-])[C@@H](CO)O2)c(=O)[nH]c1=O [AZT] | specific inhibition was demonstrated | specific decrease in infectivity (PFV [2]): greater than 10 fold |
| Nc1nc(=O)n(C2CSC(CO)O2)cc1F (stereo not drawn) [FTC, beta-2′,3′-dideoxy-5-fluoro-3′-thiacytidine] |  | Titer Relative to No-Drug Control, Pretreated (PFV [3]): 122 |
| O=c1[nH]cnc2c1ncn2[C@H]1CC[C@@H](CO)O1 [ddI] | not |  |
